22 molecules from patent US12331044B2, “Inhibitors of histone deacetylase useful for the treatment or prevention of HIV infection” (Merck Sharp & Dohme LLC, priority 2018, dated 2025) can be followed below.

Molecules are shown by their SMILES. Where two headings read alike, the source gives them in different places.

The target of assay [1] is HDAC6 (Homo sapiens (Human), UniProt Q9UBN7).
The target in assay [2] is human HDAC1 (Homo sapiens (Human), UniProt Q13547).
In assay [3] the target is human HDAC3/SMRT heterodimer (Homo sapiens (Human), UniProt O15379).
Assay [4] concerns the target human HDAC2 (Homo sapiens (Human), UniProt Q92769). Kind of assay: HDAC2 inhibition assay (modified FLUOR DE LYS, 384-well). The note with it: […] enzyme, 40 μM substrate BML-KI104, 3 h pre-incubation; read-out: HDAC2 IC50. The format is biochemical.
Assay [5] has as its system KARN cells (Jurkat 2C4). The experiment in a line: cells. The note with it: Homo sapiens.
Assay [6] addresses human HDAC8 (Homo sapiens (Human), UniProt Q9BY41). Kind of assay: HDAC8 inhibition assay (modified FLUOR DE LYS, 384-well). It is filed as biochemical. The settings on record: […] enzyme, 200 μM substrate BML-KI178, 3 h pre-incubation; read-out: HDAC8 IC50.
Method: The histone deacetylase activities of HDAC1, HDAC2, HDAC3, HDAC6, and HDAC8 were measured in modified FLUOR DE LYS assays in 384-well format. In this assay, HDAC enzymes are initially incubated with an F-acetyl (or -trifluoroacetyl)-L-lysine-containing substrate with a C-terminal amide having aminomethylcoumarin as the amine component. HDACs cleave the F-acetyl group, rendering the resulting product susceptible to AMC cleavage by trypsin. The released AMC is then detected by its fluorescence. […] All steps were performed at room temperature (23° C.). The assay was performed by pre-incubating serial dilutions of test compounds with the target HDAC prior to initiation with substrate. […] Final conditions used for each assay were: 1. […] The reactions were stopped and developed by addition of 30 ul of HDAC developer solution containing a saturating level of HDAC inhibitor as follows: 1. […] For data analysis, background subtracted product (fluorescence) vs. time data for each inhibitor concentration was fitted using a 4-parameter fit.
Setting [7] is: read-out: Karn EC50 nM 0.1% NHS, 0.1% normal human serum, luciferase induction, 2 μM SAHA = 100%.
The mark [8] stands for this setting: read-out: Karn EC50 nM 5% NHS, 5% normal human serum, luciferase induction, 2 μM SAHA = 100%.

Sequence of human HDAC8 (Q9BY41 whole entry): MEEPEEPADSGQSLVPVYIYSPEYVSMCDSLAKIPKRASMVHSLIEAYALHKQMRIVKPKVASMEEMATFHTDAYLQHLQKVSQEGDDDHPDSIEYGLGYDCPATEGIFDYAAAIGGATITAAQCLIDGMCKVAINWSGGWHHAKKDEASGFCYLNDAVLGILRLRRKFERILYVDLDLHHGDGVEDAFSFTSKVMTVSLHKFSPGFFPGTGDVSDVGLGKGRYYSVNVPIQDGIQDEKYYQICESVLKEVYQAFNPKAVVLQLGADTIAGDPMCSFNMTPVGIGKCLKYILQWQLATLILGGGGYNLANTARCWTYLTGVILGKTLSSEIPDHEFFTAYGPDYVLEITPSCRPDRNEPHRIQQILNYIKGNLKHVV
Sequence of human HDAC2 (Q92769 whole entry): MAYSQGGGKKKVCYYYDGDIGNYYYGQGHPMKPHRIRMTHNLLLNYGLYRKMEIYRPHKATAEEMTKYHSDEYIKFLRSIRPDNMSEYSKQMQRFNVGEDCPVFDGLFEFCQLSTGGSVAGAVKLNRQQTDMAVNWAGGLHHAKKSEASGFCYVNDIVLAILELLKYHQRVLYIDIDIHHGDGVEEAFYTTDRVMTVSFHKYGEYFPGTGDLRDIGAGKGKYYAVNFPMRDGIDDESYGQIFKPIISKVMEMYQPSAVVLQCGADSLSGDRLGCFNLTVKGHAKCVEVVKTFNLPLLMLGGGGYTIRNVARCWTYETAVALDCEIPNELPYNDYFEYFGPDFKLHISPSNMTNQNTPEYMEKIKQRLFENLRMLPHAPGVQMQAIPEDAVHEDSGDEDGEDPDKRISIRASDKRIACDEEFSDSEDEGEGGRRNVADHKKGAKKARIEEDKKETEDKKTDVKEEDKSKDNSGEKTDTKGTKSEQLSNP
Sequence of human HDAC3/SMRT heterodimer (O15379 whole entry): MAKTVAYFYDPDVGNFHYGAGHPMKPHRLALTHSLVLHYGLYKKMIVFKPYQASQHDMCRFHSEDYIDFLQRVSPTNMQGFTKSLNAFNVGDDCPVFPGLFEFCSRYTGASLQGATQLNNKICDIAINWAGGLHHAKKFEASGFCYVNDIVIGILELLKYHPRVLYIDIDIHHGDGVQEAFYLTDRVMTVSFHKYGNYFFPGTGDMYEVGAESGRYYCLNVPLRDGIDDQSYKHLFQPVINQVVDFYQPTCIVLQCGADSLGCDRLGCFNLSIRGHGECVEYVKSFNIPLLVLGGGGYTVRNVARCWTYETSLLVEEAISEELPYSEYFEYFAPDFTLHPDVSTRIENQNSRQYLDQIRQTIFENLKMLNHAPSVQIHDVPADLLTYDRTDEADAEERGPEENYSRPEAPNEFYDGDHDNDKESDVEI
Sequence of human HDAC3/SMRT heterodimer (Q9Y618 1-899 partner): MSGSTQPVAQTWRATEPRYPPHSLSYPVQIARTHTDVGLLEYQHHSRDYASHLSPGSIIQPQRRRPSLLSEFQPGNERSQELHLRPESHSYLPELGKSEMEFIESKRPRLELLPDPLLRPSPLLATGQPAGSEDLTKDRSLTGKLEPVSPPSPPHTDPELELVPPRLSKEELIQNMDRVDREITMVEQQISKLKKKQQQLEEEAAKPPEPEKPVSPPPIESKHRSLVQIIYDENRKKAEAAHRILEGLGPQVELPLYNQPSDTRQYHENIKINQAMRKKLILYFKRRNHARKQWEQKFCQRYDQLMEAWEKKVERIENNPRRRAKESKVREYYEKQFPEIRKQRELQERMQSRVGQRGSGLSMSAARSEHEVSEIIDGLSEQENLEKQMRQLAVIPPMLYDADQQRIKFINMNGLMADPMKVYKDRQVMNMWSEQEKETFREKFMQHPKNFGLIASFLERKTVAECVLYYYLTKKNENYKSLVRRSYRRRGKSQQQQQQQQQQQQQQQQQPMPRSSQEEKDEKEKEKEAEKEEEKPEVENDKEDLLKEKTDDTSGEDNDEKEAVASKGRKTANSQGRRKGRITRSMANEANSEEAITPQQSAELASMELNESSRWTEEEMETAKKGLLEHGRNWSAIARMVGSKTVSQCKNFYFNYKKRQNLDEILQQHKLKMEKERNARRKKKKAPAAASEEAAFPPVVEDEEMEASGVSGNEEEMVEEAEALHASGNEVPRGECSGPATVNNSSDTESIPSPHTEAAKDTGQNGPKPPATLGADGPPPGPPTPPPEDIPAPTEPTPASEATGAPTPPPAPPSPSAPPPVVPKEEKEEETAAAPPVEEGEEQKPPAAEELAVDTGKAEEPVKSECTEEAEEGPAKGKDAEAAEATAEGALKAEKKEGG
Sequence of human HDAC1 (Q13547 whole entry): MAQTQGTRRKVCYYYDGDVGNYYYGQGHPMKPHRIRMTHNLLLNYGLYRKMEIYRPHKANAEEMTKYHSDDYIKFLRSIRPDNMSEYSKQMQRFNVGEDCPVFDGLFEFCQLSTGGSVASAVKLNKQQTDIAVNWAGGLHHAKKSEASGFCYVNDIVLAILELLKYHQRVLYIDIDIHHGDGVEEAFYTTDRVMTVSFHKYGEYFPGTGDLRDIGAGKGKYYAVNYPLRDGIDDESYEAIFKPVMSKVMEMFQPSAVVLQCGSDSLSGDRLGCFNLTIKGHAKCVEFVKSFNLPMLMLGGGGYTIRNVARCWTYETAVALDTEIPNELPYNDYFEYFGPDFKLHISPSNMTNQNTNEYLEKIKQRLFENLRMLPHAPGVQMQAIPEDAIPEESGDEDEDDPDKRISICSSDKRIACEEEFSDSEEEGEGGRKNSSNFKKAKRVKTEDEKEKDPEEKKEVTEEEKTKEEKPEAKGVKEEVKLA
Sequence of HDAC6 (Q9UBN7 whole entry): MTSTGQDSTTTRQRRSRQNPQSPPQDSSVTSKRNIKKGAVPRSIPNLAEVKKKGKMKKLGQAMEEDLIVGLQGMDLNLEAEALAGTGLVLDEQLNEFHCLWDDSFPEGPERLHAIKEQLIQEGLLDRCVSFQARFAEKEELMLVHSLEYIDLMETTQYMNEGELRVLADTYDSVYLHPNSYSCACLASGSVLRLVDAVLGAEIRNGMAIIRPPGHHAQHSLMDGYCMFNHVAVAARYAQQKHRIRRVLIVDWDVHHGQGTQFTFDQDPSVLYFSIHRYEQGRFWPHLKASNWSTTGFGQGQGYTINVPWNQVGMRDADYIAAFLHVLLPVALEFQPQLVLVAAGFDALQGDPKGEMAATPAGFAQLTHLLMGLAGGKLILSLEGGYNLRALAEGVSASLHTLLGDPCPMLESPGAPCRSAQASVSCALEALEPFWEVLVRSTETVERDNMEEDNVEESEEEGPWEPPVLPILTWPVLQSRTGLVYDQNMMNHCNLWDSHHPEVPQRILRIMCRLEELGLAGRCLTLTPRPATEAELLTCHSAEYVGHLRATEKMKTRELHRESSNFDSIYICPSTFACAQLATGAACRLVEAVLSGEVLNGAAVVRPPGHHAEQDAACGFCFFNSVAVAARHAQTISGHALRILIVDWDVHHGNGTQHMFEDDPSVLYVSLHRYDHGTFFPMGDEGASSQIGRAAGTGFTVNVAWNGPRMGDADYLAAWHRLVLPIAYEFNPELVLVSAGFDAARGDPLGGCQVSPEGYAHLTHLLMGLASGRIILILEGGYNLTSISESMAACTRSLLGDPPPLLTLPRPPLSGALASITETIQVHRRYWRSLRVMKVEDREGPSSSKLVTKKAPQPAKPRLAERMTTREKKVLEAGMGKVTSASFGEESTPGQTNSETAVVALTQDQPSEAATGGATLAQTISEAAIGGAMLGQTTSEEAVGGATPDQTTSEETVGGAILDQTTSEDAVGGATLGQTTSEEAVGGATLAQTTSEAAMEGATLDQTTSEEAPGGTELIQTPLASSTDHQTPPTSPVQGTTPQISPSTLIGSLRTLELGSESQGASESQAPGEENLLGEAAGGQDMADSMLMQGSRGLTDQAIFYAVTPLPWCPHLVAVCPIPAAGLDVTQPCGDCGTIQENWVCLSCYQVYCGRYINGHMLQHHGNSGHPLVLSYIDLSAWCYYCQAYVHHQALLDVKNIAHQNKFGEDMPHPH

For `CN1CC(C(=O)N[C@@H](CCCCCC(=O)c2ncco2)c2nc(-c3ccc(F)cc3)c[nH]2)C1` [Example 1, (S)-N-(1-(4-(4-fluorophenyl)-1H-imidazol-2-yl)-7-(oxazol-2-yl)-7-oxoheptyl)-1-methylazetidine-3-carboxamide], the IC50 in assay [1] was 45000 nM; in assay [2] it was 1.1 nM.
Consider `COc1nc2ccccc2cc1-c1cnc([C@H](CCCCCC(=O)c2ncco2)NC(=O)CN2CCCC2)[nH]1` [Example 52], for which the IC50 in assay [3] was determined as 1.1 nM; in assay [4], 2.5 nM; in assay [2] it was 0.56 nM; in assay [6], 44 nM. The EC50 came out at 23 nM in assay [5] (setting [7]) and 81 nM in assay [5] (setting [8]).
Consider `COc1nc2ccccc2cc1-c1cnc([C@H](CCCCCC(=O)c2ncco2)NC(=O)CN2CCOCC2)[nH]1` [Example 54], for which the IC50 in assay [3] was found to be 1.5 nM; in assay [4], 6.3 nM; in assay [2], 2 nM; in assay [6], 88 nM. Further, the EC50 came to 76 nM in assay [5] (setting [7]) and 680 nM in assay [5] (setting [8]).
With `CN1CCC1C(=O)N[C@@H](CCCCCC(=O)c1ccon1)c1ncc(-c2ccccc2F)[nH]1` (stereo partly shown) [Example 60], the IC50 in assay [1] is greater than 900 nM; in assay [4] it was 0.41 nM; in assay [2], 0.13 nM; in assay [6], 1.7 nM. Moreover, the EC50 in assay [5] (setting [7]) was 4.2 nM; in assay [5] (setting [8]), 9 nM.
As to `CCN[C@@H](CCCCCC(=O)c1ncco1)c1ncc(-c2cc3ccc(=O)n(C)c3cc2OC)[nH]1` [Example 77, (S)-6-(2-(1-(ethylamino)-7-(oxazol-2-yl)-7-oxoheptyl)-1H-imidazol-5-yl)-7-methoxy-1-methylquinolin-2(1H)-one], the IC50 in assay [1] and in assay [6] was greater than 900 nM each time. The EC50 in assay [5] (setting [7]) and in assay [5] (setting [8]) was 120 nM throughout.
As to `COc1cc2nc(C)ccc2cc1-c1cnc([C@H](CCCCCC(=O)c2ncco2)NC2CCOCC2)[nH]1` [Example 80, (S)-7-(5-(7-methoxy-2-methylquinolin-6-yl)-1H-imidazol-2-yl)-1-(oxazol-2-yl)-7-((tetrahydro-2H-pyran-4-yl)amino)heptan-1-one], the IC50 in assay [3] came out at 5.7 nM; in assay [1], 15000 nM; in assay [4], 10 nM; in assay [6], 3500 nM. Also, the EC50 in assay [5] (setting [7]) turned out to be 550 nM; in assay [5] (setting [8]), 680 nM.
As to `N[C@@H](CCCCCC(=O)c1ccon1)c1cc(-c2ccc(F)cc2)on1` [Example 118, (S)-7-amino-7-(5-(4-fluorophenyl)isoxazol-3-yl)-1-(isoxazol-3-yl)heptan-1-one], the IC50 in assay [1] was 45000 nM; in assay [4], 8 nM; in assay [2], 2.4 nM; in assay [6], 300 nM. Further, the EC50 came to 780 nM in assay [5] (setting [7]) and 1600 nM in assay [5] (setting [8]).
With `N[C@H](CCCCCC(=O)c1ccon1)c1cc(-c2ccc(F)cc2)on1` [Example 119, (R)-7-amino-7-(5-(4-fluorophenyl)isoxazol-3-yl)-1-(isoxazol-3-yl)heptan-1-one], the IC50 in assay [1] is 45000 nM; in assay [4] it was 420 nM; in assay [2], 96 nM; in assay [6], 260 nM. Further, the EC50 in assay [5] (setting [7]) was found to be 10000 nM.
On to `NC(CCCCCC(=O)c1ccon1)c1cnn(-c2ccc(F)cc2)c1` (stereo not shown) [Example 122, 7-amino-7-[1-(4-fluorophenyl)-1H-pyrazol-4-yl]-1-isoxazol-3-ylheptan-1-one], for which the figures for the IC50 in assay [3] and in assay [2] were 570 nM and 500 nM, respectively.
For `Cn1cc2cc(-n3ccc([C@H](N)CCCCCC(=O)c4ncco4)n3)ccc2n1` [Example 127, (7R)-7-amino-7-[1-(2-methyl-2H-indazol-5-yl)-1H-pyrazol-3-yl]-1-(1,3-oxazol-2-yl)heptan-1-one], the IC50 in assay [3] was 770 nM; in assay [4], 2600 nM; in assay [2], 480 nM.
In the case of `N[C@@H](CCCCCC(=O)c1ncco1)c1ncc(-c2cnc(C3CC3)cn2)[nH]1` [Example 131, (7S)-7-amino-7-[5-(5-cyclopropylpyrazin-2-yl)-1H-imidazol-2-yl]-1-(1,3-oxazol-2-yl)heptan-1-one], the IC50 in assay [3] was 9 nM; in assay [1] it was greater than 900 nM; in assay [4], 23 nM; in assay [6], greater than 900 nM. For the same molecule, the EC50 in assay [5] (setting [7]) amounted to 1300 nM; in assay [5] (setting [8]) it was 1500 nM.
With `N[C@@H](CCCCCC(=O)c1ncco1)c1ncc(-c2cc(F)ccc2F)[nH]1` [Example 135, (7S)-7-amino-7-[5-(2,5-difluorophenyl)-1H-imidazol-2-yl]-1-(1,3-oxazol-2-yl)heptan-1-one], the IC50 in assay [1] and in assay [6] was greater than 900 nM each time. The EC50 in assay [5] (setting [7]) was found to be 5600 nM; in assay [5] (setting [8]), 13000 nM.
As to `N[C@@H](CCCCCC(=O)c1ncco1)c1ncc(-c2ccc(OC(F)(F)F)cc2F)[nH]1` [Example 141, (7S)-7-amino-7-{5-[2-fluoro-4-(trifluoromethoxy)phenyl]-1H-imidazol-2-yl}-1-(1,3-oxazol-2-yl)heptan-1-one], the IC50 in assay [1] and in assay [6] was greater than 900 nM each time. Further, the results for the EC50 in assay [5] (setting [7]) and in assay [5] (setting [8]) were 2400 nM and 3500 nM, respectively.
Regarding `COc1nc2ccccc2cc1-c1cnc([C@H](CCCCCC(=O)c2ncco2)NC(=O)c2ccc(OC(F)F)nc2)[nH]1` [Example 146, 6-(difluoromethoxy)-N-[(1S)-1-[5-(2-methoxyquinolin-3-yl)-1H-imidazol-2-yl]-7-(1,3-oxazol-2-yl)-7-oxoheptyl]pyridine-3-carboxamide], the IC50 in assay [3] was found to be 2.3 nM; in assay [4], 16 nM; in assay [2], 5.3 nM; in assay [6] it was 96 nM. Besides, the EC50 in assay [5] (setting [7]) is 130 nM; in assay [5] (setting [8]), 440 nM.
With `COc1nc2ccccc2cc1-c1cnc([C@H](CCCCCC(=O)c2ncco2)NC(=O)C2(c3ccncc3)CC2)[nH]1` [Example 151, N-[(1S)-1-[5-(2-methoxyquinolin-3-yl)-1H-imidazol-2-yl]-7-(1,3-oxazol-2-yl)-7-oxoheptyl]-1-pyridin-4-ylcyclopropanecarboxamide], the IC50 in assay [3] was found to be 1.5 nM; in assay [4], 7.8 nM; in assay [2], 2 nM; in assay [6], 57 nM. For the same molecule, the EC50 in assay [5] (setting [7]) worked out at 68 nM; in assay [5] (setting [8]), 790 nM.
Consider `COc1nc2ccccc2cc1-c1cnc([C@H](CCCCCC(=O)c2ncco2)NC(=O)c2nc3ccccc3o2)[nH]1` [Example 153, N-[(1S)-1-[5-(2-methoxyquinolin-3-yl)-1H-imidazol-2-yl]-7-(1,3-oxazol-2-yl)-7-oxoheptyl]-1,3-benzoxazole-2-carboxamide], for which the IC50 in assay [3] is 4.2 nM; in assay [4] it was 15 nM; in assay [2], 8.5 nM; in assay [6] it was 167 nM. Moreover, the EC50 in assay [5] (setting [7]) came to 100 nM; in assay [5] (setting [8]), 560 nM.
For `COc1nc2ccccc2cc1-c1cnc([C@H](CCCCCC(=O)c2ncco2)NC(=O)c2cc3n(n2)CCCC3)[nH]1` [Example 154], the IC50 in assay [3] amounted to 2 nM; in assay [4] it was 20 nM; in assay [2], 5.1 nM; in assay [6] it was 110 nM. For the same molecule, the EC50 was determined as 120 nM in assay [5] (setting [7]) and 570 nM in assay [5] (setting [8]).
In the case of `COc1nc2ccccc2cc1-c1cnc([C@H](CCCCCC(=O)c2ncco2)NC(=O)[C@H]2CCC(=O)N2)[nH]1` [Example 156, N-[(1S)-1-[5-(2-methoxyquinolin-3-yl)-1H-imidazol-2-yl]-7-(1,3-oxazol-2-yl)-7-oxoheptyl]-5-oxo-D-prolinamide], the IC50 in assay [3] was 1.1 nM; in assay [4] it was 5.4 nM; in assay [2], 1.1 nM. For the same molecule, the results for the EC50 in assay [5] (setting [7]) and in assay [5] (setting [8]) were 88 nM and 420 nM, respectively.
Turning to `COc1nc2ccccc2cc1-c1cnc([C@H](CCCCCC(=O)c2ncco2)NC(=O)[C@@H]2CCC(=O)N2)[nH]1` [Example 157, N-[(1S)-1-[5-(2-methoxyquinolin-3-yl)-1H-imidazol-2-yl]-7-(1,3-oxazol-2-yl)-7-oxoheptyl]-5-oxo-L-prolinamide], the IC50 in assay [3] stood at 1 nM; in assay [4], 4.1 nM; in assay [2], 0.64 nM. For the same molecule, the EC50 in assay [5] (setting [7]) is 77 nM; in assay [5] (setting [8]), 380 nM.
As for `COc1cc2nc(C)ccc2cc1-c1cnc([C@H](CCCCCC(=O)c2ncco2)NC(=O)Cn2cccn2)[nH]1` [Example 160, N-[(1S)-1-[5-(7-methoxy-2-methylquinolin-6-yl)-1H-imidazol-2-yl]-7-(1,3-oxazol-2-yl)-7-oxoheptyl]-2-(1H-pyrazol-1-yl)acetamide], the IC50 was 0.54 nM in assay [3], greater than 900 nM in assay [1], 5.5 nM in assay [4] and 71 nM in assay [6]. Further, the EC50 was 48 nM in assay [5] (setting [7]) and 120 nM in assay [5] (setting [8]).
`CN1CC(C(=O)N[C@@](C)(CCCCCC(=O)c2ccon2)c2ncc(-c3ccccc3F)[nH]2)C1` [Example 184, (S)-N-(2-(5-(2-fluorophenyl)-1H-imidazol-2-yl)-8-(isoxazol-3-yl)-8-oxooctan-2-yl)-1-methylazetidine-3-carboxamide]: the IC50 in assay [1] is greater than 900 nM. Further, the concentration for a half-maximal effect (EC50) in assay [5] (setting [7]) was found to be 56 nM; in assay [5] (setting [8]) it was 57 nM.
The molecule `CN1CC(C(=O)N[C@@H](CCCCCC(=O)c2ccon2)c2nc(Cl)c(-c3ccc(F)cc3)[nH]2)C1` [Example 196, (S)-N-(1-(4-chloro-5-(4-fluorophenyl)-1H-imidazol-2-yl)-7-(isoxazol-3-yl)-7-oxoheptyl)-1-methylazetidine-3-carboxamide 2,3-dihydroxysuccinate] came in with an IC50 in assay [1] of 4600 nM. Moreover, the EC50 in assay [5] (setting [7]) came to 3.8 nM; in assay [5] (setting [8]), 7.5 nM.

In general, IC50 refers to the midpoint of a concentration-inhibition curve. In general, EC50 refers to the concentration needed to bring the measured effect to its halfway point.
